Assays:
Haundel/Labrador dogs = experiment: In vivo histology of bone healing around rhOPN coated Ti implants in dogs; set-up: species or system dog; conditions: hollow screw Ti implants, dogs sacrificed after 4 and 8 weeks; vs uncoated
Excerpt: Forty implants (5 per quadrant) were placed in four Haundel/Labrador dogs after extraction of four premolars (PM1-PM4) and one molar (M1), and a three month healing period. Eight hollow screw Ti implants were coated with rhOPN. Eight uncoated implants served as controls. The remaining implants were coated with 3 additional different molecules denoted as study 2, study 3, and study 4.
Prior to implant placement, core samples from the donor place were taken to histologically analyze bone quality after extractions. This procedure, also ensured a hollow space for bone ingrowth inside the coated and uncoated implants. Dogs were sacrificed after 4 and 8 weeks.
Implants were recovered for histological analysis. Each implant was sectioned vertically. The core inside the hallow implant was removed using liquid nitrogen. Decalcified sections were embedded in paraffin and stained using Herovichi's techniques to differentiate immature from mature collagen. Light microscopy at 4× and 40× magnifications were used to compare histological differences between rhOPN coated implants and uncoated implants.
Uncoated implants show normal bone healing characterized by granulation tissue and a few areas of vascularization and matrix deposition after four weeks.

HOS cells [1] = experiment: Attachment of HOS cells to Ti disks coated with rhOPN; assay type: cell-based, human; conditions: Ti disks coated with 50 μg of rhOPN; after 30 min; vs uncoated
Method: HOS cells were labeled overnight with 10 uCi ^3H-thymidine, then dissociated from the plate with non-enzymatic dissociation solution (Sigma), washed 2 times with PBS, and counted. ^3H-thymidine incorporated into TCA insoluble material was determined for the cells. 5000 cells (cpm total 1000) were plated onto coated or uncoated titanium disks and the disks incubated at 37° C. for 30 min. Unadhered cells were removed, and attached cells were washed 3 times with 0.5 ml PBS. The cells were lysed with ice cold 20% TCA and the radioactivity in the TCA insoluble fraction was determined using the Scintillation counter (Begman 5000).
5000 cells (total cpm 1000) were plated on either coated or uncoated Ti disks and incubated at 37° C. in a humidified atmosphere (95% air 5% CO2). After 30 min, unattached cells were removed and the disks were washed with PBS. The total number of attached cells was determined for the total cpm released for the disks after the cells were lysed with 10% TCA and solubilized in 5 ml scintillation fluid. All measurements were done in triplicates and graphed as mean±Standard error of the mean.
The initial events following seeding of cells onto Ti surfaces include the attachment, migration and proliferation of the seeded cells. Coating Ti disks with 50 μg of rhOPN enhanced by 1100% the attachment of HOS cells to Ti disks (FIG. 2), after 30 min.

HOS cells [2] = experiment: Proliferation of HOS cells on plastic, glass or CrCo surfaces coated with rhOPN; assay type: cell-based, human
Method: Cell proliferation was determined by the rate of ^3H-Thymidine incorporation into DNA. Cells labeled with ^3H-Thymidine were seeded for 6 hours, then lysed with TCA. The TCA insoluble material was collected and resuspended in 0.5 N NaOH. ^3H-thymidine incorporation into TCA insoluble material was used as an index for cell proliferation. Rate of proliferation is expressed as cpm/1000 cells/6 h. All measurements were done in triplicates.
Since rhOPN promoted cell attachment to different surfaces, it was of interest to examine whether the protein had any effect on the proliferation of HOS grown on these surfaces.

HOS cells [3] = experiment: Western blot of osteopontin and BSP secreted into extracellular matrix by HOS cells on coated Ti disks; assay type: cell-based, human
Method: Osteopontin and BSP were extracted from the extracellular matrix of HOS cells cultured on Ti disks or Ti disks coated with the recombinant Opn with lysis buffer (20 mM phosphate buffer, pH, 7.2, containing 150 mM NaCI, 0.1% SDS, 1 mM phenylmethylsulfonyl fluoride, 5 mM benzamidine, 0.1 mM e-amino caproic acid, 0.1 b-hydroxy mercuribenzoate, 0.1 mM pyrophosphate, 1 mM sodium fluoride, 1 mM sodium orthovanadate and 10 mM EDTA). Samples were then processed for Gel electrophoresis.
Western blot analysis: Cell layer proteins and conditioned media was electrophoresed in 10% SDS-polyacrylamide slab gels at 150 volts for 4 h. For Western blot analysis resolved proteins in gels were transferred by semi-dry blotting onto nitrocellulose membranes (Schleicher & Schuell, Keene, N H), gel transfers were carried out for 90 min. at 12 V in 0.025 M Tris-glycine buffer, pH 8.2, containing 20% methanol and 0.01% Tween 20 and 10% nonfat dry milk, then incubated with rabbit anti-mouse osteopontin (Ashkar S, et al., New York Academy of Science 760:296-298, 1995) in 20 mM Phosphate buffer, pH 7.4, containing 150 mM NaCL, 0.1% Tween 20 and 1% nonfat dry milk. […] Nonspecific interaction was assessed by the interaction of the primary and secondary antibodies with rabbit serum albumin. […]

HOS cells [4] = experiment: Attachment of HOS cells to plastic, glass or chromocobalt surfaces coated with OPN; assay type: cell-based, human; conditions: 1 hour
Method: 500 cells were plated on coated plastic, glass or chromocobalt surfaces and incubated at 37° C. in a humidified atmosphere (95% air 5% CO2). Surfaces were coated with either human recombinant phosphorylated OPN (rhOPN) or unphosphorylated OPN. Fibronectin coated surfaces were used as a control. After 1 hour, unattached cells were removed and the surfaces were washed with PBS. The total number of attached cells was determined for the total cpm released for the surfaces after the cells were lysed with 10% TCA and solubilized in 5 ml scintillation fluid. All measurements were done in triplicates.

Substance: rhOPN: human recombinant phosphorylated form of osteopontin
- bone healing around implants (histology) (Haundel/Labrador dogs): enhanced bone healing
- enhancement of attachment of HOS cells to Ti disks (HOS cells [1]): 1100%
- Proliferation Rate (HOS cells [2]; CrCo): 1740 Cpm/6 h/1000 cells
- Proliferation Rate (HOS cells [2]; Glass): 2740 Cpm/6 h/1000 cells
- Proliferation Rate (HOS cells [2]; Plastic): 3300 Cpm/6 h/1000 cells
- proliferation rate relative to cells grown on uncoated surfaces (HOS cells [2]; glass, plastic and chromocobalt surfaces): at least twice
- OPN secretion into the extracellular matrix (Western blot) (HOS cells [3]; HOS cells on coated Ti disks vs uncoated titanium controls): increased secretion of OPN
- BSP extracellular matrix secretion (Western blot) (HOS cells [3]; HOS cells on rhOPN coated implants, control groups did not express BSP): less marked than the production of osteopontin
- % total attached (HOS cells [4]; Plastic surface): 90.8%
- % total attached (HOS cells [4]; chromocobalt (CrCo) surface): 69.2%
- % total attached (HOS cells [4]; glass surface): 98.1%

— patent publication US20060105013A1, “Osteopontin-coated surfaces and methods of use” (priority 2000, published 2006)
